Measurements reported in patent US20120122727A1, “IN VITRO METHOD FOR PREDICTING WHETHER A COMPOUND IS GENOTOXIC IN VIVO” (priority 2009, published 2012).

Tested on: primary mouse hepatocytes
Assay: Gene expression (Affymetrix Mouse Genome 430 2.0) in primary mouse hepatocytes, true vs false GTX, 24 h and 48 h
Details: 48 h; log2, corrected for vehicle control

SMILES: Nc1ccc([N+](=O)[O-])cc1N [4-NP, 4-Nitro-o-phenylenediamine]
- Gene expression AK005731 average: −0.9581
- Gene expression AK007854 average: −0.1411
- Gene expression AK010447 average: 0.5956
- Gene expression AK010738 average: −0.1569
- Gene expression AK014608 average: −0.3072
- Gene expression AK017734 average: −1.2326
- Gene expression AK018383 average: −0.5006
- Gene expression AK019979 average: 0.04087
- Gene expression AV095209 average: 0.6413
- Gene expression AV141095 average: −0.1051
- Gene expression AV173869 average: 0.1411
- Gene expression AV216768 average: −0.004067
- Gene expression AV219418 average: 0.6295
- Gene expression AV221299 average: 0.7477
- Gene expression AV246296 average: −1.046
- Gene expression AV251625 average: −0.1615
- Gene expression AV254764 average: −0.4499
- Gene expression AV327248 average: −0.01493
- Gene expression BB009155 average: −0.6079
- Gene expression BB027848 average: −1.954
- Gene expression BB043558 average: −0.2736
- Gene expression BB046347 average: −0.8045
- Gene expression BB140436 average: 2.071
- Gene expression BB204486 average: −0.0837
- Gene expression BB223872 average: −0.6536
- Gene expression BB246912 average: 0.3026
- Gene expression BB275142 average: −0.1963
- Gene expression BB458460 average: 0.1645
- Gene expression BB463610 average: 0.03727
- Gene expression BB730977 average: 0.992
- Gene expression BB743970 average: −0.1636
- Gene expression BB770528 average: −0.9985
- Gene expression BB781615 average: −0.7501
- Gene expression BC003284 average: −0.5876
- Gene expression BC004827 average: −0.2247
- Gene expression BC005552 average: 0.4521
- Gene expression BC006713 average: −0.7469
- Gene expression BC010318 average: 0.1861
- Gene expression BC012247 average: −0.6355
- Gene expression BC012955 average: 0.1051
- Gene expression BC013893 average: −1.496
- Gene expression BC017615 average: −1.535
- Gene expression BC019379 average: −0.5665
- Gene expression BC019882 average: −2.4942
- Gene expression BC021352 average: −1.28
- Gene expression BC022148 average: −1.1322
- Gene expression BC025169 average: 0.3712
- Gene expression BC026131 average: 0.2124
- Gene expression BC027026 average: 0.05273
- Gene expression BC027121 average: −0.2406
- Gene expression BC027185 average: −1.382
- Gene expression BE956581 average: 0.0346
- Gene expression BF719766 average: −0.5024
- Gene expression BG065754 average: −0.3381
- Gene expression BG066491 average: −0.8219
- Gene expression BG076151 average: −0.6573
- Gene expression BG076333 average: 0.8731
- Gene expression BG797099 average: −0.06697
- Gene expression BG967046 average: −0.6324
- Gene expression BI651416 average: −0.02873
- Gene expression BI966443 average: 0.2259
- Gene expression BM198879 average: −0.4213
- Gene expression BM200015 average: −0.4429
- Gene expression BM230508 average: −0.9731
- Gene expression BM936480 average: −0.412
- Gene expression BQ174991 average: 0.4017
- Gene expression L21027 average: −0.03073
- Gene expression NM_007556 average: 0.4274
- Gene expression NM_007980 average: −1.581
- Gene expression NM_007987 average: −0.8469
- Gene expression NM_008522 average: −0.2393
- Gene expression NM_008935 average: −1.002
- Gene expression NM_009897 average: −0.01903
- Gene expression NM_011075 average: −1.008
- Gene expression NM_011176 average: −1.635
- Gene expression NM_011316 average: −0.9295
- Gene expression NM_012006 average: −0.006733
- Gene expression NM_013642 average: 1.007
- Gene expression NM_013738 average: −1.171
- Gene expression NM_013929 average: 0.1753
- Gene expression NM_018881 average: −0.2965
- Gene expression NM_019738 average: −1.132
- Gene expression NM_030697 average: −0.3339
- Gene expression NM_053122 average: −0.09647
- Gene expression NM_134147 average: 0.01433
- Gene expression NM_134188 average: −0.4402
- Gene expression X62701 average: 0.7376
